In patent US20080058373A1, “Compositions and Methods for Treating or Preventing Glaucoma or Progression Thereof” (priority 2006, published 2008):
“And” between values parts separate entries of the source, which are not always exact repeats. Equal entries are not always repeated.

Assays:
Assay type in all cases: in vivo
[1] = tested on: rabbit eye (anterior chamber paracentesis); experiment: Pupillary diameter measurement, rabbit paracentesis model; settings: for Pupillary diameter T1: −180 min: 50 μl drops, −180 min (basal); for Pupillary diameter T1: −180 min / Pupillary diameter T2: −5 min / Pupillary diameter T3: +115 min: single eyes, listed as BOL; for Pupillary diameter T2: −5 min: 5 min before the first paracentesis; for Pupillary diameter T3: +115 min: 5 min before the second paracentesis; for Pupillary diameter Mean Δ(T3 − T1): group mean, n=8 eyes
Description: (§1) Each rabbit was placed in a restraint device and tagged with the alphanumeric code. The formulations were instilled (50 μl) into the conjunctival sac of both eyes 180, 120, 90 and 30 min before the first paracentesis; then 15, 30, 90 min after the first paracentesis. To perform the first paracentesis the animals were anaesthetized by intravenous injection of 5 mg/kg Zoletil® (Virbac; 2.5 mg/kg tiletamine HCl and 2.5 mg/kg zolazepam HCl) and one drop of local anesthetic (Novesina®, Novartis) was administered to the eye. Anterior chamber paracentesis was performed with a 26 G needle attached to a tuberculin syringe; the needle was introduced into the anterior chamber through the cornea, taking care not to damage the tissues. Two hours after the first paracentesis, the animals were sacrificed with 0.4 ml Tanax® (Intervet International B.V.) and the second paracentesis was performed. About 100 μl of aqueous humor were removed at the second paracentesis. Aqueous humor was immediately split in four aliquots and stored at −80° C. until analysis. Then both eyes were enucleated and the iris-ciliary body was carefully excised, placed in polypropylene tubes, and stored at −80° C. until analysis.
The pupillary diameter of both eyes was measured with a Castroviejo caliper 180 min and 5 min before the first paracentesis and 5 min before the second paracentesis.

[2] = tested on: rabbit eye (anterior chamber paracentesis); experiment: Clinical evaluation by slit lamp (clinical score), rabbit paracentesis model; set-up: key to Clinical Score −180 min / Clinical Score −5 min / Clinical Score +115 min: 0=normal; 1=discrete dilatation of iris and conjunctival vessels; 2=moderate dilatation of iris and conjunctival vessels; 3=intense iridal hyperemia with flare in the anterior chamber; 4=intense iridal hyperemia with flare in the anterior chamber and presence of fibrinous exudates; settings: for Clinical Score −5 min: 5 min before the first paracentesis; for Clinical Score −5 min / Clinical Score +115 min / Clinical Score −180 min: single eyes; for Clinical Score +115 min: 5 min before the second paracentesis
protein in aqueous humor = experiment: Protein measurement in aqueous humor, rabbit paracentesis model; settings: for Protein levels in aqueous humor, Mean: second paracentesis, group mean
Description: as §1
For protein concentration determination in the aqueous humor we used the Protein Quantification Kit (Fluka; Cat.No. 77371; Lot.No. 1303129). Five microliters of aqueous humor were diluted to 100 μl with water. Twenty microliters of samples and of standards were load into a 96-well plate and recorded in a plate layout. Samples were treated following the assay procedure described in the kit. A microplate reader (GDV, Italy; model DV 990 B/V6) set at 670 nm was used for making the calibration and analyzing the samples.

Leukocytes (PMN) = Leukocytes (PMN) measurement in aqueous humor, rabbit paracentesis model; settings: for PMN numbers in aqueous humor, Mean: second paracentesis, group mean
Description: as §1
For the determination of the number of leukocytes we used a haemocytometer (Improved Neubauer Chamber; Bright-line, Hausser Scientific) and a Polyvar 2 microscope (Reichert-Jung).

[3] = tested on: New Zealand White rabbits; experiment: Mortality/morbidity in the rabbit IOP study
Description: On Days 1-31, animals received daily topical doses of the appropriate test article into the right eye. Animals were dosed four times per day, with doses administered 2 hours apart. Doses were administered using a calibrated 50-μL pipette. The eyelids were held close for 10 seconds immediately following dosing. The time of each dose administration was recorded.
Animals determined to be moribund were euthanized with an intravenous injection of commercial euthanasia solution.

[4] = 0.1% topical, +115 min, N=8 eyes
[5] = 0.5% topical, +115 min, N=8 eyes
[6] = 1 mg/g (0.05 mg/dose) 4 × daily, Group D, individual rabbits

Cc1ccc2c(NCC(O)(CC(C)(C)c3cc(F)cc4c3OCC4)C(F)(F)F)cccc2n1 (stereo not shown)
Pupillary diameter T1: −180 min ([1]; 0.1% topical): 6.5 mm and 7.0 mm and 7.5 mm
Pupillary diameter T2: −5 min ([1]; 0.1% topical): 6.5 mm and 7.0 mm and 7.5 mm
Pupillary diameter T3: +115 min ([1]; 0.1% topical): 5.0 mm and 6.0 mm and 6.5 mm and 5.5 mm
Pupillary diameter Mean Δ(T3 − T1) ([1]; 0.1% topical): −1.1 mm
Pupillary diameter T1: −180 min ([1]; 0.5% topical): 8.0 mm and 7.0 mm and 7.5 mm
Pupillary diameter T2: −5 min ([1]; 0.5% topical): 8.0 mm and 7.0 mm and 7.5 mm
Pupillary diameter T3: +115 min ([1]; 0.5% topical): 6.5 mm and 6.0 mm and 7.0 mm
Pupillary diameter Mean Δ(T3 − T1) ([1]; 0.5% topical): −1.0 mm
Pupillary diameter T1: −180 min ([1]; 1% topical): 6.0 mm and 6.5 mm
Pupillary diameter T2: −5 min ([1]; 1% topical): 6.0 mm and 6.5 mm and 7.0 mm
Pupillary diameter T3: +115 min ([1]; 1% topical): 5.5 mm and 5.0 mm and 6.0 mm
Pupillary diameter Mean Δ(T3 − T1) ([1]; 1% topical): −0.9 mm
Clinical Score −5 min ([2]; 0.1% topical): 0
Clinical Score +115 min ([2]; 0.1% topical, listed as BOL): 2 and 3
Percentage of eyes with clinical score 2 [2, 4]: 75%
Percentage of eyes with clinical score 3 [2, 4]: 25%
Percentage of eyes with clinical score 0 ([2]; 0.1% topical, −5 min, N=8 eyes): 100%
Percentage of eyes with clinical score 0 ([2]; 0.1% topical, −180 min (basal), N=8 eyes): 100%
Clinical Score −180 min ([2]; 0.1% topical, −180 min (basal)): 0
Clinical Score −5 min ([2]; 0.5% topical): 0
Clinical Score +115 min ([2]; 0.5% topical, listed as BOL): 2 and 1
Percentage of eyes with clinical score 1 [2, 5]: 37.5%
Percentage of eyes with clinical score 2 [2, 5]: 62.5%
Percentage of eyes with clinical score 0 ([2]; 0.5% topical, −5 min, N=8 eyes): 100%
Percentage of eyes with clinical score 0 ([2]; 0.5% topical, −180 min (basal), N=8 eyes): 100%
Clinical Score −180 min ([2]; 0.5% topical, −180 min (basal)): 0
Clinical Score −5 min ([2]; 1% topical): 0
Clinical Score +115 min ([2]; 1% topical): 2
Percentage of eyes with clinical score 2 ([2]; 1% topical, +115 min, N=8 eyes): 100%
Percentage of eyes with clinical score 0 ([2]; 1% topical, −5 min, N=8 eyes): 100%
Percentage of eyes with clinical score 0 ([2]; 1% topical, −180 min (basal), N=8 eyes): 100%
Clinical Score −180 min ([2]; 1% topical, −180 min (basal)): 0
Protein levels in aqueous humor, Mean (protein in aqueous humor; 0.1% topical): 33.667 mg/mL
Protein levels in aqueous humor (raw data) (protein in aqueous humor; 0.5% topical, samples collected at the second paracentesis, single eyes, listed as BOL): 33.98 mg/mL and 33.65 mg/mL and 19.99 mg/mL and 27.11 mg/mL and 19.72 mg/mL and 36.35 mg/mL and 27.71 mg/mL and 32.24 mg/mL
Protein levels in aqueous humor, Mean (protein in aqueous humor; 0.5% topical): 28.844 mg/mL
Protein levels in aqueous humor, Mean (protein in aqueous humor; 1% topical): 21.435 mg/mL
PMN numbers in aqueous humor, Mean (Leukocytes (PMN); 0.1% topical): 28.333 number/μl
PMN numbers in aqueous humor, Mean (Leukocytes (PMN); 0.5% topical): 21.250 number/μl
PMN numbers in aqueous humor (raw data) (Leukocytes (PMN); 1% topical, samples collected at the second paracentesis, single eyes, listed as BOL): 30 number/μl and 20 number/μl and 40 number/μl
PMN numbers in aqueous humor, Mean (Leukocytes (PMN); 1% topical): 28.750 number/μl
Day of Death (day euthanized or found dead) [3, 6]: 29
Recorded Notes (mortality) [3, 6]: Found dead.
Mortality (animals found dead or euthanized prior to study completion/number of animals in group) ([3]; 1 mg/g, 0.05 mg/dose, topical right eye 4 × daily, Day 33): 1/10^(6)
